According to US8138377B2, “Arylbicyclo[3.1.0]hexylamines and methods and compositions for their preparation and use” (DOV Pharmaceutical, Inc., priority 2007, dated 2012):

Tests used:
[1] = target: T1, norepinephrine (NE) transport (Rattus norvegicus, UniProt Q63380); assay: Inhibition of [3H]NE uptake in rat hypothalamus synaptosomes; assay type: biochemical
T1 construct: synaptosomal preparations were made from either whole brain (5-HT), striatum (DA) or hypothalamus (NE); from tissue; host or cells: rat hypothalamus synaptosomes
T1 sequence (Q63380 1-617): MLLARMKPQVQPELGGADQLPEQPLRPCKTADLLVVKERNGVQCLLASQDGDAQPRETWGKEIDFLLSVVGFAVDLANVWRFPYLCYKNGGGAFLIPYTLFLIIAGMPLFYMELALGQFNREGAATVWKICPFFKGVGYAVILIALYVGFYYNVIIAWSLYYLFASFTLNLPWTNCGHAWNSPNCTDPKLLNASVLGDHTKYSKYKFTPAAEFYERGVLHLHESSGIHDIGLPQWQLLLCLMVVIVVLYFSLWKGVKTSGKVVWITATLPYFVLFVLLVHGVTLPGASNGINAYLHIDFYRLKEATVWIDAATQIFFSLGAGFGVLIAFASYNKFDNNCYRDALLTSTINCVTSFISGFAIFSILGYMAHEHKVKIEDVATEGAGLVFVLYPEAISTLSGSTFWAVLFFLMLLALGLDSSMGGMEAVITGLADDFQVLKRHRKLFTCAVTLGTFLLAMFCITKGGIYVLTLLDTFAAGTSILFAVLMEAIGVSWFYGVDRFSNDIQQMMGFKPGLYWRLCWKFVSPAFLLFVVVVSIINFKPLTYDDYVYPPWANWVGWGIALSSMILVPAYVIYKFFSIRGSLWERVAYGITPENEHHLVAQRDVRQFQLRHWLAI
Method: (§1) The effects of arylbicyclo[3.1.0]hexylamines of the invention for inhibiting transport of norepinephrine (NE) and/or dopamine (DA) and/or serotonin (5-HT) were evaluated using preparations of synaptosomes from different regions of the rat brain according to previously-reported techniques.
(§2) Whole brains were obtained from normal rats, and synaptosomal preparations were made from either whole brain (5-HT), striatum (DA) or hypothalamus (NE) by gentle disruption in 10 volumes (w/v) of 0.32 M sucrose (0-4° C.) using a Teflon-glass homogenizer. The homogenate was then centrifuged at 1000×g for 10 min. The supernatant was retained and centrifuged at 23000 g for 20 min. The resulting pellet was gently resuspended in 200 volumes of 0.32 M sucrose (0-4° C.) using a teflon-glass homogenizer. Aliquots (250 μL) of this preparation were added to tubes, along with 0.2 μCi/mL of [^3H]5-HT, [^3H]DA, or [^3H]NE, 200 μL of selected 1-arylbicyclo[3.1.0]hexanamine test compounds (to yield final concentrations of 500 nM) and 1 mL of Krebs-Ringer bicarbonate buffer (pH 7.4). […] At the end of this period, the assay was terminated by rapid filtration over Whatman GF/C glass fiber filters. The filters were rinsed 3 times with 4 ml of Krebs-Ringer bicarbonate buffer (0-4° C.), and the radioactivity retained on the filters was measured by liquid scintillation spectrometry.

dopamine (DA) transport = target: T2, dopamine (DA) transport (Rattus norvegicus, UniProt P23977); assay: biochemical
T2 construct: synaptosomal preparations were made from either whole brain (5-HT), striatum (DA) or hypothalamus (NE); from tissue; host or cells: rat striatum synaptosomes
T2 sequence (P23977 whole entry): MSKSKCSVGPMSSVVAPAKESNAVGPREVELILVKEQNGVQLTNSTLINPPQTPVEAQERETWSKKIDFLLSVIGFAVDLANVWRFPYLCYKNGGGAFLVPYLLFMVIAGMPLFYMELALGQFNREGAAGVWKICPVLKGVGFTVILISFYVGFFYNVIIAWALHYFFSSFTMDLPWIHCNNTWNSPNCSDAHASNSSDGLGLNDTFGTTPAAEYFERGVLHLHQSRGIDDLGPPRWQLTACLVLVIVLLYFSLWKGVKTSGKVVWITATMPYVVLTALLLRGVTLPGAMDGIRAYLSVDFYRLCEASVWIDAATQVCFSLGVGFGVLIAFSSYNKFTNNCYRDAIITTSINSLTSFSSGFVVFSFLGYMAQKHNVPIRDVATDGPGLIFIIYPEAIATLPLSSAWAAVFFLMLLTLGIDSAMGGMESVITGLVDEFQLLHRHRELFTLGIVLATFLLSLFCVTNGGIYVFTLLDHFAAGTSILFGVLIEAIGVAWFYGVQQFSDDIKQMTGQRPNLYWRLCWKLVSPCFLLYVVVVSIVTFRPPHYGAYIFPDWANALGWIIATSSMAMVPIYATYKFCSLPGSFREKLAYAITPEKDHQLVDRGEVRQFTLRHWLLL
Method: as §1, §2

[2] = target: T3, serotonin (5-HT) transport (Rattus norvegicus, UniProt P31652); assay: biochemical
T3 construct: synaptosomal preparations were made from either whole brain (5-HT), striatum (DA) or hypothalamus (NE); from tissue; host or cells: rat whole brain synaptosomes
T3 sequence (P31652 whole entry): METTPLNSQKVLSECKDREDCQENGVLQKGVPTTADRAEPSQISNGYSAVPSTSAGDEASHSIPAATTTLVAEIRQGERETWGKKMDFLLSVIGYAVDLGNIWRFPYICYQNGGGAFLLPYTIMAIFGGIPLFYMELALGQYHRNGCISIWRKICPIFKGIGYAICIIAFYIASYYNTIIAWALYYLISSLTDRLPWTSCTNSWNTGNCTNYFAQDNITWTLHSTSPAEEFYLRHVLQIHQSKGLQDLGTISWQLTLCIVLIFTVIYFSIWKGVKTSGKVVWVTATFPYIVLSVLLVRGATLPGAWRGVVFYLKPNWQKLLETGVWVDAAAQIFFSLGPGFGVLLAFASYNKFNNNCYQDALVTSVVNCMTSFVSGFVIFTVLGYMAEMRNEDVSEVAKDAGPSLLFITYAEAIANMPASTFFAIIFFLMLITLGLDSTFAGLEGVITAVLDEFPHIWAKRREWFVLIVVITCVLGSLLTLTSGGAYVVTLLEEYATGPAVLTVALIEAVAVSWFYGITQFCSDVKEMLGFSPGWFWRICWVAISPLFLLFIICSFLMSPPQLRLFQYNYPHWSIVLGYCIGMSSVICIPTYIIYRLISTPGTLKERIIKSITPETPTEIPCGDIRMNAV
Method: as §1, §2

CNC1CC2CC2(c2cccc3ccccc23)C1 (stereo not drawn)
IC50 [1]: 74 nM | inhibition at 0.5 µM ([1]; 500 nM, 20 min, 37° C.): 81% | IC50 (dopamine (DA) transport): 8730 nM | inhibition at 0.5 µM (dopamine (DA) transport; read-out: Uptake Inhibition % at 500 nM DA): 23% | IC50 [2]: 76 nM | inhibition at 0.5 µM ([2]; read-out: Uptake Inhibition % at 500 nM 5-HT): 82%
